Data: PubChem BioAssay (NCI)
“And” between values parts separate entries of the source, which are not always exact repeats. Identical values can stand only once.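 Values below derive from 48-hour exposures of cells grown in 96-well plates, with endpoints linearly interpolated between the two concentrations bracketing the appropriate inhibition level. Abbreviation: GI50, concentration required for 50% inhibition of growth. TGI: total growth inhibition.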

What was measured:
Assay in all cases: NCI anticancer screen, dose series, 48 h
[1] = tested on: RPMI-8226 leukemia
[2] = tested on: A498 renal
[3] = tested on: SK-MEL-28 melanoma
[4] = tested on: SF-539 CNS
[5] = tested on: OVCAR-8 ovarian
[6] = tested on: UACC-257 melanoma
[7] = tested on: LOX IMVI melanoma
[8] = tested on: KM12 colon
[9] = tested on: OVCAR-4 ovarian
[10] = tested on: DU-145 prostate

SMILES	TGI [1] [µM]	TGI [2] [µM]	TGI [3] [µM]	TGI [4]	TGI [5] [µM]	TGI [6] [µM]	TGI [7] [µM]	TGI [8] [µM]	TGI [9] [µM]	GI50 [1]	GI50 [2]	GI50 [3] [µM]	GI50 [4]	GI50 [10]	TGI [10] [µM]	GI50 [5]	GI50 [6] [µM]	GI50 [8]	GI50 [9] [µM]	GI50 [7]
COC(=O)[C@H]1C=C[C@@H](C)n2c(=O)c3cc4ccccc4cc3c(=O)n21	> 100	> 100	> 100	> 100 µM	> 100	> 100	> 100	> 100												
Cc1cc(C)nc(NS(=O)(=O)c2ccc(NC(=O)c3cccc4c(Nc5ccc(S(N)(=O)=O)cc5)c5ccccc5nc34)cc2)n1	> 100	> 100	> 29.3	20.5 µM	> 100	72.4	99.8	47.3	> 85.5											
Cc1ccc(NC(=O)CSc2nnc(-c3ccc(N=Cc4ccc(Cl)cc4)cc3)o2)cc1	> 100		> 100		> 100	> 100	> 100	> 100	> 100											
COC1(OC)CC2C(=O)N(Cc3ccccc3)C1C=C2S(=O)(=O)c1ccccc1 (configuration not stated)	63.1	45	31.9	32.7 µM	40.5	34.5	28.2	31.6	53.5											
C/C(CC(=O)Nc1cccc(Cl)c1C)=N\NC(=O)c1ccncc1	> 100		> 100	> 100 µM	> 100	> 100	> 100	> 100												
Cc1nc([N+](=O)[O-])cn1CC(=N)N	> 100	> 100	> 100	> 100 µM	> 100	> 100	> 100		> 100											
CC1COC(C)(C)P(=O)(c2ccccc2)C1 (configuration not stated)	> 100	> 100	> 100	> 100 µM	> 100	> 100	> 100	> 100												
COc1cc(C=O)c(-c2cc(OC)c(OC)cc2C=O)cc1OC	> 100	> 100	> 100	> 100 µM	> 100	> 100	66	> 100	> 100											
O=C1NC(=NCCc2cccc(Cl)c2)S/C1=C\c1ccc2ncccc2c1	> 25	> 25	> 25	> 25 µM	> 25	> 25		> 25	> 25	> 25 µM	> 25 µM	> 25	> 25 µM	> 25 µM	> 25	> 25 µM	> 25	1.32 µM	> 25	
CC(C)N(CCn1c2c3ccccc3ccc2c2oc(=O)c3ccccc3c21)C(C)C	> 100	> 100	> 100	> 74.1 µM	> 100	> 100	> 100	> 100	> 100											
CCOC(=O)c1c(NC(=O)c2cccc(C(F)(F)F)c2)sc2c(CN(C)C)c(O)ccc12		34.5	3.21	12.4 µM	18.8	3.31	7.52	17.9	21.5		12.4 µM	1.76	3.41 µM	5.82 µM	17.9	6.12 µM	1.76	4.92 µM	9.85	2.7 µM
CCN1C(=O)N(CC)C2C1NN=c1s/c(=C3\C(=O)N(CC(C)(C)C)c4ccccc43)c(=O)n12 (configuration not stated)		4.85	22	11.1 µM	> 100	37.9	15.4	18.4	66.6		1.12 µM	6.94	2.95 µM	3.79 µM	18.6	4.67 µM	13.1	3.67 µM	7.77	3.38 µM
COC(=O)/C=C1\CCC(C)O1 (configuration not stated)	> 100			> 100 µM	> 100	> 100	> 100	> 100	> 100											
COC(=O)[C@@H](C)C[C@H](Cc1ccccc1)NC(=O)c1csc([C@@H](C[C@H](C(C)C)N(C)C(=O)[C@@H](NC(=O)[C@H]2CCCCN2C)C2CCCCC2)OC(C)=O)n1	3.64			0.00619 µM and 0.00859 µM	> 25		23	> 25	> 25	0.000324 µM and 0.0025 µM	0.000272 µM and 0.0025 µM		0.00211 µM and 0.0025 µM	0.000291 µM and 0.0025 µM		0.00354 µM and 0.0025 µM		0.000296 µM and 0.0025 µM		0.00139 µM and 0.0025 µM
N#CC(C(=O)C(=O)Nc1ccc(Cl)cc1)c1ccccc1 (configuration not stated)	> 100	> 100	> 100	> 100 µM		> 100	> 100	> 100	> 100											
S=c1[nH]c(=S)c2nnn(-c3ccccc3)c2[nH]1	> 100		> 100	> 100 µM	> 100	> 100	> 100	> 100												
COC(=O)/C=C/c1c(CC=C(C)C)ncn1C	> 100	> 100	> 100	62.2 µM	> 100	> 100	> 100	> 100	> 100											
CCCN1CN(C(C(=O)N[C@@H]2C(=O)N3C2SC(C)(C)C3C(=O)O)c2ccc(O)cc2)CSC1=S (some centres not stated)	> 100	> 100	> 100	> 100 µM	> 100	> 100	> 100	> 100	> 100											
Cc1cccc(C)c1NC(=O)C(=O)C(C(=O)c1ccccc1-c1ccccc1)C1OC(=O)c2ccccc21 (configuration not stated)	60.1	48.9	61.4	28.3 µM	> 100	> 100	45	48.9												
CN[C@@H](C)[C@@H](NC)c1ccccc1	> 100	> 100	> 100	> 100 µM	> 100	> 100	> 100	> 100												
CC(C)C(=O)Nc1nc2c(ncn2C2OC(CO)C(O)C2O)c(=O)[nH]1 (configuration not stated)	> 100	> 100	> 100	> 100 µM	> 100	> 100	> 100	> 100	> 100											

SMILES	TGI [1] [µM]	TGI [2] [µM]	TGI [3] [µM]	TGI [4]	TGI [5] [µM]	TGI [6] [µM]	TGI [7] [µM]	TGI [8] [µM]	TGI [9] [µM]	GI50 [1]	GI50 [2]	GI50 [3] [µM]	GI50 [4]	GI50 [10]	TGI [10] [µM]	GI50 [5]	GI50 [6] [µM]	GI50 [8]	GI50 [9] [µM]	GI50 [7]
Cc1nc(-[n+]2nc(-c3ccncc3)nn2-c2ccccc2)sc1C	> 100	> 100	> 100	69.2 µM	> 100	> 100	> 100	> 100							> 100					
COc1ncc(-c2ccc3ncnc(Nc4cccc(Cl)c4)c3c2)cc1NS(=O)(=O)C1CC1	> 100		> 100	> 100 µM	> 100			> 100		> 100 µM		> 100	2.87 µM			2.18 µM		38.9 µM		
O=[N+]([O-])c1ccc(N2N=C(c3ccc(NCc4nc5ccccc5[nH]4)cc3)CC2c2ccco2)cc1 (configuration not stated)	94.5	> 100	> 100	84.4 µM	57.7		41.6	41.4	64.8											
O=CN1CCN(CC(O)CN2CCCCC2)CC1 (configuration not stated)	> 100	> 100	> 100		> 100	> 100	> 100	> 100	> 100						> 100					
CCOP(=O)(OCC)OC1C=CC2CCC1C2 (configuration not stated)	54.2	> 100	> 100	> 100 µM	> 100	> 100	> 100	> 100	> 100											
COc1cc(C(=O)N2CCN(c3ncccn3)CC2)c(N)cc1OCc1ccccc1	> 100	> 100	> 100		> 100	> 100	> 100	> 100	> 100	> 100 µM	54.2 µM	> 100		37.2 µM	> 100	> 100 µM	> 100	> 100 µM	> 100	> 100 µM
O=S(=O)(c1ccccc1)C1CN2OC1(S(=O)(=O)c1ccccc1)CC2c1ccc(Br)cc1 (configuration not stated)	> 100	> 100	> 100	89.9 µM	> 100	> 100	> 100	> 100	> 100											
CCCO/S(=N\S(=O)(=O)c1ccccc1)c1ccccc1[N+](=O)[O-] (configuration not stated)	> 100		> 100	> 100 µM	> 100	> 100	> 100	> 100	> 100											
CCOc1ccncc1[N+](=O)[O-]	> 100	> 100	> 100	> 100 µM	> 100	> 100	> 100	> 100							> 100					
Cc1ccc(S(=O)(=O)c2ccc(N)cc2)cc1	> 100	> 100	> 100	> 100 µM	> 100	> 100		> 100	> 100											
COc1ccc(CCNC(=O)c2ccc(NC3=C(Cl)C(=O)N(Cc4ccccc4)C3=O)cc2)cc1OC	6.5	72.1	> 100	70.5 µM	> 100	48.6		> 100	> 100	2.27 µM	27.2 µM	15.1	23.9 µM	16.2 µM	> 100	11.9 µM	20.3	23.5 µM	> 100	
O=Cc1ccc2c(c1-c1c(C=O)ccc3c1OCO3)OCO2	> 100	> 100	> 100	> 100 µM	> 100	> 100		> 100	> 100											
O=P1(c2ccccc2)CCCCC1	> 100	> 100	> 100	> 100 µM	> 100	> 100	> 100	> 100	> 100											
CNS(=O)(=O)NNS(=O)(=O)c1ccc(Br)cc1	> 100	> 100	> 100	> 100 µM	> 100	> 100	> 100		> 100											
C#COc1cccc(Nc2c(C#N)cnc3ncc(NC(=O)CCl)cc23)c1	> 62.5	> 62.5	> 62.5	37.6 µM	> 62.5	> 62.5	> 62.5	> 62.5		> 62.5 µM	45.8 µM	> 62.5	13.9 µM	42.1 µM	> 62.5	46 µM	> 62.5	56.7 µM		28.8 µM
Cc1cc(NS(=O)(=O)c2ccc(Nc3c4ccccc4nc4c(C(=O)N5CCN(CCO)CC5)ccc(Cl)c34)cc2)no1	> 100	> 100	> 100	> 100 µM	> 100	> 100		> 100	> 100											
Cc1ccc(C)c(N=C2NC(=O)C(CC(=O)Nc3ccc(Cl)cc3Cl)S2)c1 (configuration not stated)	> 100	96.2	> 100	> 100 µM	> 100	> 100	> 100	> 100	> 100											
COc1cc2c(c(OC)c1OC)-c1ncc3cc4c(cc3c1C2)OCO4	> 100		> 100		36.9		34.1	80.1	> 100	17.8 µM		54.6		23.2 µM	> 100	13.9 µM		18.6 µM	46.3	14.3 µM
CC(=O)O[C@H]1CCC2[C@@H]3CCC4Nc5[nH]ncc5C[C@]4(C)C3CC[C@@]21C (some centres not stated)	> 100	> 100		> 100 µM	> 100	72.4	> 100	> 100	> 100											
CC(C)C(=O)NS(=O)(=O)c1ccccc1	> 100	> 100	> 100	> 100 µM	> 100	> 100	> 100	> 100	> 100											
